Assay results from PMC8662641, “Site-Specific Labeling of Endogenous Proteins Using CoLDR Chemistry” (Journal of the American Chemical Society, 2021).

Tests used:
primary mouse B cells = experiment: B-cell response experiment (CD86 after anti-IgM); type: cell-based; details: 24 h treatment, 1–1000 nM
Procedure: Splenic cells from C57BL/6 mice were isolated by forcing spleen tissue through the mesh into PBS containing 2% fetal calf serum and 1 mM EDTA, and red blood cells were depleted by lysis buffer. […] Following a 24 h incubation, cells were stimulated with anti-IgM overnight (5 μg/mL, Sigma-Aldrich). […] Single-cell suspensions were analyzed by a flow cytometer (CytoFlex, Beckman Coulter).

BTK kinase domain = BTK kinase domain (Homo sapiens, UniProt Q06187); experiment: MS/MS site-of-labeling analysis of BTK tryptic peptides; type: binding; set-up: BTK kinase domain was expressed and purified as previously reported; made in house
Sequence of BTK kinase domain (Q06187 402-655 limits assumed): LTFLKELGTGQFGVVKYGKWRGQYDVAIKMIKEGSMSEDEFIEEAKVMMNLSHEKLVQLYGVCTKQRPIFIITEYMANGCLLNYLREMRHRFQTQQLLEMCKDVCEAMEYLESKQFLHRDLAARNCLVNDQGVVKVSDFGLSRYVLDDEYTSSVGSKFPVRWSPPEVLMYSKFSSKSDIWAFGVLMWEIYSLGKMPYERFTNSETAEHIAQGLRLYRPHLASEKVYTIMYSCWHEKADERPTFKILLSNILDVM
Procedure: 100 μl of 5 μM Recombinant BTK kinase domain was incubated in 20 mM Tris with 50 μM of 1b or DMSO. The compounds were then removed by methanol-chloroform (400 μL MeOH+100 μL CHCl3+300 μL H2O) precipitation of the protein. The dry pellet was dissolved in 50 μl of 50 mM Tris pH 8 + 5% SDS and heated to 95 °C for 6 min. The concentration of the protein was estimated using BCA assay (using BSA as the standard). 2 μg each sample were diluted to 15 μl with Tris 50 mM pH 8 + 5% SDS, reduced with DTT (0.75 μl of 0.1 M in 5% SDS/Tris 50 mM pH 8, 45 min 65 °C), cooled to room temperature, then alkylated with 0.75 μl of 0.2 M iodoacetamide in water (30 min room temperature in the dark). The protein was then isolated and trypsinized on s-traps (Protifi) according to the manufacturer's instructions. Triplicates were prepared for each […]
ULC/MS grade solvents were used for all chromatographic steps. Each sample was loaded using split-less nano-Ultra Performance Liquid Chromatography (10 kpsi nanoAcquity; Waters, Milford, MA, USA). The mobile phase was: A) H2O + 0.1% formic acid and B) acetonitrile + 0.1% formic acid. Desalting of the samples was performed online using a reversed-phase Symmetry C18 trapping column (180 µm internal diameter, 20 mm length, 5 µm particle size; Waters). The peptides were then separated using a T3 HSS nano-column (75 µm internal diameter, 250 mm length, 1.8 µm particle size; Waters) at 0.35 µL/min. Peptides were eluted from the column into the mass spectrometer using the following gradient: 4% to 30%B in 155 min, 35% to 90%B in 5 min, maintained at 90% for 5 min and then back to initial conditions.
The nanoUPLC was coupled online through a nanoESI emitter (10 μm tip; New Objective; Woburn, MA, USA) to a quadrupole orbitrap mass spectrometer (Q Exactive HFX, Thermo Scientific) using a FlexIon nanospray apparatus (Proxeon).
Data was acquired in data dependent acquisition (DDA) mode, using a Top10 method. MS1 […]
maximum injection time was set to 60msec. MS2 resolution was set to 15,000, quadrupole isolation 1.7 m/z, AGC of 1e5, dynamic exclusion of 45 sec and maximum injection time of 60 […]
Analysis was done using MaxQuant 1.6.3.4. The sequence of BTK was used for the analysis. The digestion enzyme was set to Trypsin with a maximum number of missed cleavages of 0.
Carbamidomethyl and the modification by the molecule were included as variable modifications on cysteine. The “Re-quantify” option was enabled. Contaminants were included. Peptides were searched with a minimum peptide length of 7 and a maximum peptide mass of 4,500 Da. “Second peptides” were enabled and “Dependent peptides” were disabled. The option “Match between runs” was enabled with a Match time window of 0.7 min and an alignment window of 20 min. An FDR of 0.01 was used for Protein FDR, PSM FDR and XPSM FDR. The triplicate measured for each compound (or for DMSO-treated protein) was analyzed separately.
Following MaxQuant analysis, only fully cleaved peptides were quantified and cysteine-containing peptides that were not modified by either iodoacetamide or compound were ignored.
The intensity for each peptide was calculated as the average of the three triplicates. If the intensity was zero for one of the replicates the peptide was ignored. The intensities for the non-cysteine containing peptides were averaged for each data set and used to normalize the intensity of cysteine-containing peptides. Estimation of the extent of labeling of cysteine-containing peptides in the sequence was done by comparing the intensity of carbamidomethyl-modified peptides between the DMSO and molecule-treated samples. MS/MS spectra for the carbamidomethyl-modified and molecule modified peptides were extracted using Skyline. […]
The obtained

BTK = BTK (Homo sapiens, UniProt Q06187); experiment: BTK activity in Mino cells (autophosphorylation); type: cell-based; set-up: We incubated Mino B cells with probes containing different tags; endogenous in cells; host or cells: Mino cells; details: Mino cells, 1 h; 100 nM probes, 1 μM ibrutinib or Ibr-H
Sequence of BTK (Q06187 whole entry): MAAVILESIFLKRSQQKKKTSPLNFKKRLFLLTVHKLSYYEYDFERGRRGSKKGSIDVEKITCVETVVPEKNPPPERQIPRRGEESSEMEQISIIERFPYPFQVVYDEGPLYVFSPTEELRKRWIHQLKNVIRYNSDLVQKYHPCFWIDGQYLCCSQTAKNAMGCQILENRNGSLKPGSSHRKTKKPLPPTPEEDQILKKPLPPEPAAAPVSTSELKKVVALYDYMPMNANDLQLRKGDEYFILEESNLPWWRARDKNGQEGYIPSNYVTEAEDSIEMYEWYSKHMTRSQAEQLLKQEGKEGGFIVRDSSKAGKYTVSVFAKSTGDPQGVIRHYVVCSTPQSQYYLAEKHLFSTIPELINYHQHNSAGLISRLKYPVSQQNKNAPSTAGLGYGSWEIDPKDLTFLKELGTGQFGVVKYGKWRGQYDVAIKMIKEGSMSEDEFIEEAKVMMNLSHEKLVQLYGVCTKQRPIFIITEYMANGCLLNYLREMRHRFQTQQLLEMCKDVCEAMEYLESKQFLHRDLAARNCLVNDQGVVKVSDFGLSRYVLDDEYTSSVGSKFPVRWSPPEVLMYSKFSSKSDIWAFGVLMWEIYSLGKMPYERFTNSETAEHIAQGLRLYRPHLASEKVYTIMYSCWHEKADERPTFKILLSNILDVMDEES
Procedure: The cells were harvested, and immunoblots of phospho-BTK, total-BTK, and β-actin were performed.
Cell pellets were washed with ice-cold PBS and lysed using RIPA buffer (Sigma, R0278). […] Samples containing 50 μg of total protein were prepared with 4× LDS sample buffer (NuPAGE, Thermo Fischer Scientific, NP0007) and were then resolved on a 4–20% Bis-Tris gel (GeneScript SurePAGE, M00657). […] The EZ-ECL kit (Biological Industries, 20-500-1000) was used to detect HRP activity.

site of modification on BTK (BTK kinase domain; LC/MS/MS of tryptic peptides): Cys481
1b/DMSO ratio after correction (BTK kinase domain; iodoacetamide labeled peptide 457-466 LVQLYGVCTK): 0.891
1b/DMSO ratio after correction (BTK kinase domain; iodoacetamide labeled peptide 467-487 QRPIFIITEYMANGCLLNYLR): 0.092
1b/DMSO ratio after correction (BTK kinase domain; iodoacetamide labeled peptide 493-503 FQTQQLLEMCK): 0.469
1b/DMSO ratio after correction (BTK kinase domain; iodoacetamide labeled peptide 504-515 DVCEAMEYLESK): 0.413
1b/DMSO ratio after correction (BTK kinase domain; iodoacetamide labeled peptide 526-536 NCLVNDQGVVK): 0.724
1b/DMSO ratio after correction (BTK kinase domain; iodoacetamide labeled peptide 626-637 VYTIMYSCWHEK): 0.735
BTK autophosphorylation after anti-IgM (BTK): BTK remained active after labeling
SMILES: C#CCCNC(=O)C(=C)CN1CCC[C@@H](n2nc(-c3ccc(Oc4ccccc4)cc3)c3c(N)ncnc32)C1 [1b]
B cell activation (CD86 expression) after anti-IgM (primary mouse B cells): did not inhibit the activation of B cells
